Data on 2 compounds can be found in patent US12458641B2, “NK-3 receptor antagonists for therapeutic or cosmetic treatment of excess body fat” (Ogeda SA, priority 2015, dated 2025).

Values joined by “and” are separate entries in the source; they are usually repeats but may differ in a detail not shown here. Identical values can stand only once.

Experiment [1] is described as follows: Body weight and BMI in overweight women. It is filed as in vivo, human. The settings on record: 180 mg for 21 consecutive days, individual subjects. Here is the method: Overweight women, i.e. having a BMI ranging from 25 to 30 kg/m^2, received 180 mg of compound k-5 for 21 consecutive days.
(§1) The weight was measured at screening which took place between 28 and 2 days before start of dosing (D-28 to D-2), as well as on the follow-up visit planned on D42 (21 days after cessation of study compound intake).

In experiment [2] the test system is leptin. As to the kind of experiment: 13-week oral dosing in cynomolgus monkeys: serum leptin by ELISA. It counts as in vivo, cynomolgus monkeys (Macaca fascicularis). How it is done: (§2) NHPs were divided into three treatment groups: vehicle control (N=6) and compound k-5 Dose Groups of 10 mg/kg (N=4) and 50 mg/kg (N=6), respectively. All NHPs were dosed once daily (morning) by oral gavage over the 13 week treatment period of the study. The dose vehicle was 0.5% methylcellulose (Methocel® from Colorcon) in water.
All NHPs were subjected to leptin levels measurements. Blood samples were collected at 08 h00 in the morning from overnight-fasted animals on Day-2 prior to dosing (‘pre-dose’), 24 h after the initial dosing, on day 52 of dosing and on day 86 of dosing. Serum samples were derived from these blood samples and stored frozen (−20° C.) until analysis. Leptin concentrations in these serum samples were determined by ELISA assay (Monkey Kit: MyBiosource Cat. N° MBS705354) based upon linear regression analysis against a standard curve.

Experiment [3] concerns leptin. Kind of experiment: Plasma leptin level in women (placebo-controlled, ELISA). It is filed as in vivo, human. The following applies: non-obese premenopausal women; 20, 60 and 180 mg once daily, all dose levels; p<0.05 paired t-test (FIG. 4). From the text:
This was a randomized, double-blind, placebo-controlled study. All subjects provided written informed consent prior to screening for study eligibility. Healthy female volunteers aged 20-45 years with a body mass index of 19-30 kg/m^2 were included. Participants needed to be in good physical health including the presence of a regular ovulatory menstrual cycle and the discontinuation of all hormonal contraceptive methods at least 3 months prior to screening. Three panels of 8 non-obese female volunteers (median BMI of each panel: 22.3, 23.4, 25.2 kg/m^2) each were administered capsules of compound k-5 or matching placebo in a 6:2 ratio for 21 days. Subjects received the study medication in a once daily regimen after a light standardized breakfast. The participants in these panels were synchronized for their menstrual cycle; i.e. the initiation of dosing was always on Day3±2 of the menstrual cycle. The dose levels investigated were 20, 60 and 180 mg of compound k-5. Blood samples were collected on the day prior to dosing as well as on Day 21 (the final day of dosing) and plasma fractions were retained and stored frozen (−20° C.) until analysis. Leptin concentrations in these plasma samples were determined by ELISA assay (Human Leptin Kit: R&D Systems, Cat. N° DLP00) based upon linear regression analysis against a standard curve.
A general note: In an ELISA, binding on a coated surface is turned into a signal by an enzyme label.

Experiment [4] in a line: 13-week oral dosing in cynomolgus monkeys: whole-body DEXA scan (lean mass, bone mineral density, bone mineral content, fat mass). It counts as in vivo, cynomolgus monkeys (Macaca fascicularis). How it is done: (§3) Sexually-mature (age range of ˜4 years at pre-dose), purpose-bred cynomolgus monkeys (Macaca fascicularis) of Asian origin were used. Sexual maturity was proven by recording of at least two menstrual bleedings (with 20-to-50 days between menstruations) prior to entry into the study.
as §2
All NHPs were subjected to a body weight measurement and DEXA scan (Dual-energy X-ray absorptiometry, Hologic Dexa QDR® 4000) in the pre-dose phase and in the final week (week-13) of the dosing phase. The measurements were made under ketamine anesthesia with dorbene and antisedan.
The whole body was scanned by DEXA for measurement of lean mass, bone mineral density, bone mineral content and fat mass.

Experiment [5] relates to leptin. Kind of experiment: Plasma leptin level in female rats over the estrous cycle (ELISA, AUC). It counts as in vivo. The following applies: 10 mg/kg oral BID, p<0.05 paired t-test (FIG. 5).
Procedure: Daily plasma samples were collected each morning from sexually-mature female rats and analyzed for peak estrogen levels (coincident with proestrus) in order to define the timing of the estrous cycle for individual rats. Next, rats were dosed orally BID (i.e. twice a day) with vehicle (0.5% methylcellulose) over a 4-day ‘baseline’ estrous cycle. Plasma samples were collected daily, each morning, and stored frozen prior to analysis for leptin. […] Plasma samples were collected daily, each morning, and stored frozen prior to analysis for leptin. In a single experiment, plasma samples collected daily during both the ‘baseline’ and ‘treatment’ cycles were analyzed in a common experiment by ELISA assay based upon linear regression analysis against a standard curve. Leptin levels over the 4-day estrous cycle were calculated for individual rats by determination of AUC (area-under-the-curve) using credited data analysis software (GraphPad Prism).
Experiment [6] in a line: Body weight and BMI in healthy women with normal corpulence. It counts as in vivo, human. The following applies: 60 mg for 21 consecutive days, individual subjects. Here is the method:
Healthy women with normal corpulence, i.e. having a BMI ranging from 18.5 to 25 kg/m^2, received 60 mg of compound k-5 for 21 consecutive days.
as §1

Experiment [7] can be described thus: 13-week once-daily oral dosing in cynomolgus monkeys: body weight. It is filed as in vivo, cynomolgus monkeys (Macaca fascicularis). The settings on record: female monkeys, 13 weeks, 50 mg/kg (FIG. 3), vehicle group gained about 12%.
From the text: The cynomolgus monkey was selected as a relevant species because of the similarity of nonhuman primates (NHP) to humans. The route of administration is oral consistent with the intended route in humans.
as §3
NHPs were maintained on a standard lab diet of twice-daily offerings of commercial pellets for primates supplemented with fresh fruit and bread. Dietary and environmental enrichment were also provided through the study duration. Animals were housed in a climate (19-25° C.) and humidity (40-70%) controlled environment with artificial lighting controlled automatically to give a cycle of 12 hours light and 12 hours dark.
NHPs were divided into three treatment groups: vehicle control (N=6) and compound k-5 Dose Groups of 10 mg/kg (N=4) and 50 mg/kg (N=6), respectively. All NHPs were dosed once daily (morning) by oral gavage over the 13 week treatment period of the study. The dose vehicle was 0.5% methylcellulose (Methocel® from Colorcon) in water. […]

A short description of experiment [8]: Multiple ascending dose administration in healthy women: body weight. It counts as in vivo, human. The following applies: for Weight D 42 / Weight Screening: group mean; for Weight D 42: 21 days after last dose; for Weight Screening: before dosing (D-28 to D-2); for Pre vs Post Difference / Pre vs Post Difference (%): screening vs D42. How it is done:
Three Panels A, B, and C, each consisting of 6 healthy women, were randomized to receive different dose level of compound k-5. In those 3 panels, compound k-5 is administered for 21 consecutive days.
Subjects were residential from the day before first dosing (D-1) until Day 24 (=72 hours after the last dose intake on Day 21). Weekly non-residential visits were organized on Day 28, Day 35 (±1 day) and a follow-up visit on Day 42 (±2 days). Ascending multiple doses of compound k-5 were administered in a once-daily regimen for 21 consecutive days. […] Subjects received the trial medication in a q.d. regimen and after a light breakfast.
Subjects were recruited on the basis of their medical history and health status. Especially, subjects meeting all of the following criteria were eligible to participate in this study: • 1) Premenopausal females between 18 and 45 years of age inclusive. • 2) Healthy with no clinically significant abnormalities as determined by medical history, physical examination, blood chemistry assessments, hematologic assessments, coagulation and urinalysis, measurement of vital signs, and ECG. Isolated out-of-range values judged by the physician to be of no clinical significance were allowed. […] Weight Measurement
The weight was measured at screening, which took place between 28 and 2 days before start of dosing (D-28 to D-2), and at the end-of-study visit (D42, i.e. 21 days after cessation of study compound intake).
A two-tailed T-test for paired samples was used to explore the difference between the screening and post-study values for weight.

The conditions of experiment [9]: rats fed standard chow or high-fat diet (Li et al., 2014); cited from earlier work.

On to `Cc1nsc(-c2nnc3n2CCN(C(=O)c2ccc(F)cc2)[C@@H]3C)n1` [k-5, (R)-(4-fluorophenyl)(8-methyl-3-(3-methyl-1,2,4-thiadiazol-5-yl)-5,6-dihydro-[1,2,4]triazolo[4,3-a]pyrazin-7(8H)-yl)methanone], for which the “BMI D 42” value in experiment [1] (D42) is 26.79 and 26.17 and 26.21; in experiment [6] (D42), 21.45 and 22.95 and 21.39. Further, the BMI screening was 27.94 and 27.81 and 27.15 in experiment [1] (before dosing); 22.18 and 23.71 and 21.55 in [6] (before dosing). The “Difference” value was -2.8 kg and -4.2 kg and -3 kg in [1] (screening vs D42); -2.2 kg and -2 kg and -0.5 kg in experiment [6] (screening vs D42). Also, the “Difference (%)” value is −4.29% and −6.27% and −3.57% in [1] (screening vs D42); −3.43% and −3.28% and −0.74% in experiment [6] (screening vs D42). Also, the “Weight Screening” value in experiment [1] (overweight women BMI 25 to 30 kg/m^2, before dosing) is 68 kg and 71.2 kg and 87 kg; in experiment [6] (women BMI 18.5 to 25 kg/m^2, before dosing) it was 66.4 kg and 63 kg and 68.3 kg; in [8] (20 mg once daily for 21 days), 58.2 kg; in experiment [8] (60 mg once daily for 21 days) it was 73.3 kg; in experiment [8] (180 mg once daily for 21 days), 69.0 kg. For the same compound, the “Weight D 42” value in [1] (overweight women, D42) was 65.2 kg and 67 kg and 84 kg; in experiment [6] (women BMI 18.5 to 25 kg/m^2, D42), 64.2 kg and 61 kg and 67.8 kg; in experiment [8] (20 mg once daily for 21 days), 58.0 kg; in [8] (60 mg once daily for 21 days), 71.9 kg; in experiment [8] (180 mg once daily for 21 days), 66.9 kg. The “serum leptin levels 24-hours after initial dosing” value with leptin [2] (50 mg/kg oral (FIG. 2), relative to pre-dose and to time-matched vehicle group) is “significantly increases”. In addition, the “serum leptin levels over the duration of dosing relative to vehicle-treated group” value in the experiment on leptin [2] (50 mg/kg oral once daily, up to day 86 (FIG. 2)) is listed as “persistently higher”. For the same compound, the “leptin levels following 21 days of treatment relative to pre-dose levels” value in the experiment with leptin [3] is given as “increases serum leptin levels”. Further, the “% fat/total mass, treated versus vehicle-treated group” value in experiment [4] (50 mg/kg, week 13, N=6/group) is reported as “statistically-significant difference”. Also, the “change in % fat/total mass over the 13-week treatment period (DEXA)” value in [4] (10 and 50 mg/kg dose groups, pre-dose vs week 13, increased in the vehicle group (FIG. 1)) was “no significant change”. Also, the “plasma leptin levels over the 4-day estrous cycle (AUC) versus baseline cycle” value with leptin [5] is on record as “increases plasma leptin levels”. Moreover, the “change in mean weight over the course of the dosing phase” value in experiment [7] was “no significant change”. Also, the “Pre vs Post Difference” value in experiment [8] (20 mg once daily for 21 days) was -0.13 kg; in [8] (60 mg once daily for 21 days), -1.38 kg; in experiment [8] (180 mg once daily for 21 days), -2.10 kg. Moreover, the “Pre vs Post Difference (%)” value was −0.23% in experiment [8] (20 mg once daily for 21 days), −1.92% in [8] (60 mg once daily for 21 days) and −3.14% in experiment [8] (180 mg once daily for 21 days). Moreover, the “weight lowering with increasing doses” value in [8] (20, 60, 180 mg once daily for 21 days, healthy women) is “dose-dependent trend exists towards weight lowering”.

Regarding `CC[C@H](NC(=O)c1c(C)c(-c2ccccc2)nc2ccccc12)c1ccccc1` [SB222200, 3-Methyl-2-phenyl-N-[(1S)-1-phenylpropyl]-4-quinolinecarboxamide], the effect on weight entry in [9] is on record as “no effect on weight was observed”.
